Measurements taken from the supplement of paper PMC10307832.

How the values were obtained:
Assay in all cases: relative viability (nuclei count vs DMSO), 5 days (fraction); higher = more cells survive
Adavosertib + Linsitinib = compound: C=CCn1c(=O)c2cnc(Nc3ccc(N4CCN(C)CC4)cc3)nc2n1-c1cccc(C(C)(C)O)n1 [Adavosertib] + C[C@]1(O)C[C@@H](c2nc(-c3ccc4ccc(-c5ccccc5)nc4c3)c3c(N)nccn32)C1 [Linsitinib] (partner 1 µM)
Method in brief: (§1)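 The day after seeding in 1536-well plates, lung cancer cell lines were treated by pin tool with a single drug, or with a fixed anchor-drug dose together with five library-drug doses (not always all listed) in √10 steps. After 5 days, a combined fix-and-stain solution (final 0.05% Triton X-100, 1% formaldehyde, 1 ug/ml Hoechst) was added. Nuclei counted on 4× images gave relative viability as treated counts over vehicle counts, reported as the median of duplicate plates.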

Adavosertib + OSI-027 = compound: C=CCn1c(=O)c2cnc(Nc3ccc(N4CCN(C)CC4)cc3)nc2n1-c1cccc(C(C)(C)O)n1 [Adavosertib] + COc1cccc2cc(-c3nc([C@H]4CC[C@H](C(=O)O)CC4)n4ncnc(N)c34)[nH]c12 [OSI-027] (partner 0.5 µM)
Method in brief: as §1

Nelarabine + Luminespib = compound: COc1nc(N)nc2c1ncn2[C@@H]1O[C@H](CO)[C@@H](O)[C@@H]1O [Nelarabine] + CCNC(=O)c1noc(-c2cc(C(C)C)c(O)cc2O)c1-c1ccc(CN2CCOCC2)cc1 [Luminespib] (partner 0.01 µM)
Method in brief: as §1

Adavosertib + Phenformin = compound: C=CCn1c(=O)c2cnc(Nc3ccc(N4CCN(C)CC4)cc3)nc2n1-c1cccc(C(C)(C)O)n1 [Adavosertib] + N=C(N)NC(=N)NCCc1ccccc1 [Phenformin] (partner 250 µM)
Method in brief: as §1

| Cell Line | relative viability (Adavosertib + Linsitinib; first compound 0.01 µM) | relative viability (Adavosertib + Linsitinib; first compound 0.03162 µM) | relative viability (Adavosertib + Linsitinib; first compound 0.1 µM) | relative viability (Adavosertib + Linsitinib; first compound 0.3162 µM) | relative viability (Adavosertib + OSI-027; first compound 0.01 µM) | relative viability (Adavosertib + OSI-027; first compound 0.03162 µM) | relative viability (Adavosertib + OSI-027; first compound 0.1 µM) | relative viability (Adavosertib + OSI-027; first compound 0.3162 µM) | relative viability (Nelarabine + Luminespib; first compound 0.01 µM) | relative viability (Nelarabine + Luminespib; first compound 0.03162 µM) | relative viability (Nelarabine + Luminespib; first compound 0.1 µM) | relative viability (Nelarabine + Luminespib; first compound 0.3162 µM) | relative viability (Nelarabine + Luminespib; first compound 1 µM) | relative viability (Adavosertib + Phenformin; first compound 0.01 µM) | relative viability (Adavosertib + Phenformin; first compound 0.03162 µM) | relative viability (Adavosertib + Phenformin; first compound 0.1 µM) | relative viability (Adavosertib + Phenformin; first compound 0.3162 µM) |
| --- | --- | --- | --- | --- | --- | --- | --- | --- | --- | --- | --- | --- | --- | --- | --- | --- | --- |
| NCI-H1355 | 0.892 | 0.701 | 0.872 | 0.808 | 0.396 | 0.387 | 0.364 | 0.355 | 0.763 | 0.618 | 0.667 | 0.629 | 0.713 | 0.474 | 0.455 | 0.426 | 0.403 |
| COR-L 105 | 0.818 | 1.13 | 0.976 | 0.906 | 0.598 | 0.677 | 0.558 | 0.503 | 0.701 | 0.822 | 0.792 | 0.669 | 0.904 | 0.558 | 0.443 | 0.467 | 0.409 |
| 201T | 1.04 | 0.957 | 0.941 | 1.08 | 0.667 | 0.734 | 0.669 | 0.666 | 1.09 | 1.09 | 1.03 | 1.07 | 1.04 | 0.453 | 0.441 | 0.467 | 0.453 |
| NCI-H2342 | – | – | – | – | 0.575 | 0.566 | 0.676 | 0.616 | 0.775 | 0.707 | 0.657 | 0.753 | 0.765 | 0.569 | 0.587 | 0.571 | 0.572 |
| NCI-H838 | 1.01 | 1.05 | 1 | 1.09 | 0.425 | 0.346 | 0.391 | 0.388 | 0.316 | 0.321 | 0.31 | 0.257 | 0.221 | 0.57 | 0.502 | 0.525 | 0.655 |
| NCI-H522 | – | – | – | – | 0.809 | 0.784 | 0.718 | 0.659 | – | 0.993 | 1.25 | 0.96 | 1.29 | 0.679 | 0.57 | 0.691 | 0.676 |
| CAL-12T | 0.822 | 0.818 | 0.939 | 0.944 | 0.568 | 0.711 | 0.582 | 0.235 | 0.32 | 0.315 | 0.367 | 0.699 | 0.394 | 0.576 | 0.545 | 0.573 | 0.336 |
| NCI-H1755 | 0.997 | 0.956 | 0.992 | 0.997 | 0.662 | 0.731 | 0.754 | 0.666 | 0.463 | 0.456 | 0.755 | 0.539 | 0.56 | 0.643 | 0.615 | 0.613 | 0.63 |
| LCLC-103H | 1.07 | 1.02 | 1.14 | 1.07 | 0.458 | 0.441 | 0.428 | 0.417 | 1.26 | 0.905 | 0.969 | 1.06 | 0.99 | 0.347 | 0.372 | 0.319 | 0.3 |
| NCI-H1666 | 0.763 | 1.14 | 0.813 | 0.754 | 0.797 | 0.851 | 0.847 | 0.744 | 0.991 | 0.962 | 0.898 | 1 | 1 | 0.549 | 0.562 | 0.636 | 0.594 |
| LC-2-ad | 0.773 | 0.883 | 0.781 | 0.729 | 0.834 | 0.94 | 0.892 | 0.694 | 1.1 | 1.09 | 0.932 | 1.08 | 0.916 | 0.565 | 0.635 | 0.621 | 0.597 |
| PC-3 [JPC-3] | 0.903 | 0.935 | 0.929 | 0.985 | 0.805 | 0.743 | 0.775 | 0.731 | 0.651 | 0.429 | 0.697 | 0.703 | 0.601 | 0.458 | 0.46 | 0.498 | 0.488 |
| IA-LM | 0.687 | 0.749 | 0.692 | 0.807 | – | – | – | – | – | – | – | – | – | – | – | – | – |
| Calu-6 | 0.906 | 0.917 | 1.02 | 0.866 | – | – | – | – | – | – | – | – | – | – | – | – | – |
| ChaGo-K-1 | – | – | – | – | 0.546 | 0.633 | 0.511 | 0.591 | 0.821 | 0.361 | 0.637 | 0.659 | 0.562 | 0.469 | 0.506 | 0.484 | 0.457 |
| NCI-H1623 | – | – | – | – | 0.427 | 0.446 | 0.389 | 0.431 | 0.467 | 0.574 | 0.588 | 0.483 | 0.621 | 0.553 | 0.629 | 0.563 | 0.652 |
| NCI-H1648 | – | – | – | – | 0.273 | 0.293 | 0.248 | 0.251 | – | – | – | – | – | – | – | – | – |
| NCI-H2170 | – | – | – | – | 0.703 | 0.786 | 0.632 | 0.597 | 1.17 | 1.21 | 0.602 | 0.746 | 0.465 | 0.444 | 0.404 | 0.407 | 0.441 |
| NCI-H1703 | 1.05 | 0.822 | 1.01 | 0.414 | – | – | – | – | – | – | – | – | – | – | – | – | – |
